# Like-named read-outs stand apart in the source and are kept apart here.
# Legend:
# [1] = tested on: acutely dissociated and purified rat OPCs; experiment: Acute OL differentiation assay (MBP expression/cell, immunofluorescent image quantification); type: cell-based; details: for activation at 0.08 µM / activation at 0.4 µM / activation at 2 µM / activation at 10 µM: Rattus norvegicus; for activation at 0.08 µM: test compound at 0.08 uM, read-out: 0.08 uM (% Quet); for activation at 0.4 µM: test compound at 0.4 uM, read-out: 0.4 uM (% Quet)
# Method in brief: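 This acute differentiation assay used purified rat OPCs from postnatal day 6–7 pups, seeded into PDL/laminin-coated 96-well plates in differentiation medium lacking PDGF and FGF. Compounds were applied in quadruplicate after a 1–2 h preincubation at 37 °C, 10 % CO2, with 0.1 % DMSO negative and 40 ng/ml T3 positive controls in eight wells. After fixation on DIV4, anti-MBP immunofluorescence images yielded MBP expression/cell.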
# expanded OPCs = experiment: cells; details: for viability at 0.1 µM / viability at 1 µM / viability at 10 µM: Rattus norvegicus, 72 h
# Method in brief: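 Toxicity screen: compounds added at 0.1, 1 and 10 µM to PDGF-AA-expanded OPCs in 96-well plates, 3-day incubation at 37 °C, 10% CO2, then alamarBlue 1:10 for 4 h with fluorescence readout. Results set screening doses of 10/2, 2/0.4 or 0.4/0.08 µM.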
# [2] = NCC library screen, sheet "All OLga data", relative to quetiapine
# [3] = read-out: 0.1 µM (% DMSO), alamarBlue viability, NCC library compound at 0.1 µM, sheet "All Tox data"
# [4] = read-out: 1 µM (% DMSO), alamarBlue viability, NCC library compound at 1 µM, sheet "All Tox data"
# [5] = read-out: 10 µM (% DMSO), alamarBlue viability, NCC library compound at 10 µM, sheet "All Tox data"
# [6] = test compound at 2 uM, NCC library screen, sheet "All OLga data", relative to quetiapine, read-out: 2 uM (% Quet)
# [7] = test compound at 10 uM, NCC library screen, sheet "All OLga data", relative to quetiapine, read-out: 10 uM (% Quet)
# [8] = alamarBlue viability of expanded OPCs, compound at 0.1 µM, relative to DMSO control
# [9] = alamarBlue viability of expanded OPCs, compound at 1 µM, relative to DMSO control
# [10] = alamarBlue viability of expanded OPCs, compound at 10 µM, relative to DMSO control
# [11] = 2 uM test compound, relative to quetiapine, sheet "All OLga data", read-out: OL differentiation, 2 uM (% Quet)
# [12] = 10 uM test compound, relative to quetiapine, sheet "All OLga data", read-out: OL differentiation, 10 uM (% Quet)
# [13] = read-out: 0.1 µM (% DMSO), alamarBlue viability of expanded OPCs, compound at 0.1 µM, sheet All Tox data
# [14] = read-out: 1 µM (% DMSO), alamarBlue viability of expanded OPCs, compound at 1 µM, sheet All Tox data
# [15] = read-out: 10 µM (% DMSO), alamarBlue viability of expanded OPCs, compound at 10 µM, sheet All Tox data
# [16] = MBP expression relative to quetiapine, NCC library screen, sheet "All OLga data"
smiles,measurement,setting,value
CN(C)CCCN1c2ccccc2Sc2ccc(Cl)cc21 [Chlorpromazine],activation at 0.08 µM,[1]; [2],7.4%
same,activation at 0.4 µM,[1]; [2],-44.8%
same,viability at 0.1 µM,expanded OPCs; [3],67.2%
same,viability at 1 µM,expanded OPCs; [4],38.2%
same,viability at 10 µM,expanded OPCs; [5],10.5%
CCCNC(=O)NS(=O)(=O)c1ccc(Cl)cc1 [Chlorpropamide],activation at 2 µM,[1]; [6],-27.8%
same,activation at 10 µM,[1]; [7],-19%
same,0.1 µM (% DMSO),expanded OPCs; [8],185.9 % DMSO
same,1 µM (% DMSO),expanded OPCs; [9],197.2 % DMSO
same,10 µM (% DMSO),expanded OPCs; [10],208.8 % DMSO
NS(=O)(=O)c1cc(C2(O)NC(=O)c3ccccc32)ccc1Cl (stereo not shown) [Chlorthalidone],activation at 2 µM,"[1]; test compound at 2 uM, MBP expression relative to quetiapine, NCC library screen, sheet ""All OLga data"", read-out: 2 uM (% Quet)",-5.8%
same,activation at 10 µM,"[1]; test compound at 10 uM, MBP expression relative to quetiapine, NCC library screen, sheet ""All OLga data"", read-out: 10 uM (% Quet)",-2%
same,0.1 µM (% DMSO),expanded OPCs; [8],92.5 % DMSO
same,1 µM (% DMSO),expanded OPCs; [9],95.8 % DMSO
same,10 µM (% DMSO),expanded OPCs; [10],81.7 % DMSO
CC1(C)C[C@@H]1C(=O)N/C(=C\CCCCSC[C@H](N)C(=O)O)C(=O)O [Cilastatin],activation at 2 µM,"[1]; read-out: OL differentiation, 2 uM (% Quet)",-1.9%
same,activation at 10 µM,"[1]; read-out: OL differentiation, 10 uM (% Quet)",-4.3%
same,viability at 0.1 µM,expanded OPCs; read-out: 0.1 µM (% DMSO),96.8%
same,viability at 1 µM,expanded OPCs; read-out: 1 µM (% DMSO),95.5%
same,viability at 10 µM,expanded OPCs; read-out: 10 µM (% DMSO),89.5%
CN/C(=N/CCSCc1nc[nH]c1C)NC#N [Cimetidine],activation at 2 µM,[1]; [6],2.9%
same,activation at 10 µM,[1]; [7],-11.1%
same,0.1 µM (% DMSO),expanded OPCs; [8],89.7 % DMSO
same,1 µM (% DMSO),expanded OPCs; [9],89.2 % DMSO
same,10 µM (% DMSO),expanded OPCs; [10],92.3 % DMSO
CN(C)CCCSc1ccccc1NC(=O)/C=C/c1ccccc1 [Cinanserin],activation at 2 µM,[1]; [11],64.2%
same,activation at 10 µM,[1]; [12],63.5%
same,viability at 0.1 µM,expanded OPCs; [13],80.3%
same,viability at 1 µM,expanded OPCs; [14],84.3%
same,viability at 10 µM,expanded OPCs; [15],74.7%
COc1cc(N)c(Cl)cc1C(=O)NC1CCN(CCCOc2ccc(F)cc2)CC1OC (stereo not shown) [Cisapride],activation at 2 µM,[1]; [11],11.3%
same,activation at 10 µM,[1]; [12],25.5%
same,viability at 0.1 µM,expanded OPCs; [13],80.4%
same,viability at 1 µM,expanded OPCs; [14],89%
same,viability at 10 µM,expanded OPCs; [15],73.6%
Nc1nc(Cl)nc2c1ncn2[C@H]1C[C@H](O)[C@@H](CO)O1 [Cladribine],activation at 0.08 µM,[1]; [2],-6.7%
same,activation at 0.4 µM,[1]; [2],-22.9%
same,viability at 0.1 µM,expanded OPCs; [3],41.2%
same,viability at 1 µM,expanded OPCs; [4],22.4%
same,viability at 10 µM,expanded OPCs; [5],10.4%
NC(=NCc1ccc(Cl)cc1)SCCCc1cnc[nH]1 [Clobenpropit],activation at 0.4 µM,[1]; [2],7.2%
same,activation at 2 µM,[1]; [6],-2.7%
same,viability at 0.1 µM,expanded OPCs; [3],120%
same,viability at 1 µM,expanded OPCs; [4],107%
same,viability at 10 µM,expanded OPCs; [5],39.3%
C[C@H]1C[C@H]2[C@@H]3CCC4=CC(=O)C=C[C@]4(C)[C@@]3(F)[C@@H](O)C[C@]2(C)[C@@]1(O)C(=O)CCl [Clobetasol],2 uM (% Quet),"[1]; test compound at 2 uM, NCC library screen, sheet ""All OLga data"", relative to quetiapine",-30.9 % Quet
same,10 uM (% Quet),"[1]; test compound at 10 uM, NCC library screen, sheet ""All OLga data"", relative to quetiapine",-99.6 % Quet
same,0.1 µM (% DMSO),"expanded OPCs; alamarBlue viability, NCC library compound at 0.1 µM, sheet ""All Tox data""",124.1 % DMSO
same,1 µM (% DMSO),"expanded OPCs; alamarBlue viability, NCC library compound at 1 µM, sheet ""All Tox data""",133.0 % DMSO
same,10 µM (% DMSO),"expanded OPCs; alamarBlue viability, NCC library compound at 10 µM, sheet ""All Tox data""",121.5 % DMSO
CC(C)/N=c1\cc2n(-c3ccc(Cl)cc3)c3ccccc3nc-2cc1Nc1ccc(Cl)cc1 [Clofazimine],activation at 0.08 µM,[1]; [2],0.25%
same,activation at 0.4 µM,[1]; [2],-57.8%
same,viability at 0.1 µM,expanded OPCs; [3],89.9%
same,viability at 1 µM,expanded OPCs; [4],45.9%
same,viability at 10 µM,expanded OPCs; [5],19%
CCN(CC)CCOc1ccc(C(=C(Cl)c2ccccc2)c2ccccc2)cc1 [Clomiphene],activation at 0.4 µM,[1]; [16],51.5%
same,0.1 µM (% DMSO),expanded OPCs; [8],172.3 % DMSO
same,1 µM (% DMSO),expanded OPCs; [9],59.8 % DMSO
same,10 µM (% DMSO),expanded OPCs; [10],8.1 % DMSO
CN(C)CCCN1c2ccccc2CCc2ccc(Cl)cc21 [Clomipramine],activation at 0.08 µM,[1]; [16],18.5%
same,activation at 0.4 µM,[1]; [16],-59.9%
same,0.1 µM (% DMSO),expanded OPCs; [8],76.2 % DMSO
same,1 µM (% DMSO),expanded OPCs; [9],37.7 % DMSO
same,10 µM (% DMSO),expanded OPCs; [10],8.7 % DMSO

# From paper PMC5011342, “A high throughput drug screening assay to identify compounds that promote oligodendrocyte differentiation using acutely dissociated and purified oligodendrocyte precursor cells” (BMC Research Notes, 2016)
